Consider 17 compounds from patent US12662451B2, “Chemical compounds and uses thereof” (GLAXOSMITHKLINE INTELLECTUAL PROPERTY (NO.4) LIMITED, priority 2023, dated 2026).

Series [1] has as its target T1, recombinant full-length WRN protein (1-1432) (Homo sapiens, UniProt Q14191).
T1 construct: recombinant full-length WRN protein (1-1432)
The series is described as follows: WRN unwinding activity, fluorogenic 384-well assay (Example A). Format: biochemical. The following applies: WRN unwinding activity, Table 2; for IC50: 4 hr, read-out: 4 hr UNW pIC50 (converted). In a few lines:
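200 pM enzyme (2× stock) preincubated with compound 4 h at ambient temperature, then 200 μM ATP and 12 nM quenched TAMRA-labelled dsDNA (2× stocks) added for 60 min; EDTA-quenched. Buffer 25 mM Tris pH 8.0, 5 mM NaCl, 2 mM MgCl2. Fluorescence at 525/598 nm; pIC50 from four-parameter fit.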

The test system of series [2] is SW48 human colorectal cancer cells. In words: Calculated free drug potency in SW48 cell assay, corrected with media free fraction (Example C). Format: cell-based. The following applies: SW48 pCC50 corrected with measured free fraction in cell assay media. The protocol:
It was observed that the compounds of the present disclosure are bound to cell assay media to various degrees, which would affect the cellular potency analysis in Example B. To measure free drug potency, concentrations used in the cell assays were corrected with the measured free fraction determined in the cell assay media. Compounds were incubated in a rapid equilibrium dialysis (RED) at a nominal concentration of 1 μM, using a dialysis buffer of phosphate-buffered saline (PBS, 100 mM sodium phosphate+150 mM sodium chloride, pH 7.4). The test compound was spiked into the medium. Aliquots were added to the donor wells of a RED plate in triplicate, and blank PBS was added to each receiver well, at volumes recommended by the manufacturer. Plates were incubated with shaking at 200 rpm for 4 hours at 37° C. The resultant samples were analysed by LC-MS/MS using a specific and sensitive method. Results were reported as analyte:internal standard peak area ratios (PARs), and the percent unbound was calculated with the following equation:
[formula] where Cfinal=PAR in the T=240 minute sample; Cinitial=PAR in the T=0 minute sample. Cell culture media unbound percentage and calculated free drug potency of selected compounds along with their measured potency from Example B are shown in Table 3.

Series [3] has as its system SW48 human colorectal cancer cells (MSI-H cancer cells). In words: SW48 cell viability, CellTiter-Glo, 120 hours (Example B). The following applies: for CC50: Homo sapiens, SW48, 120 h, read-out: SW48 pCC50, SW48 cell viability, 120 hours incubation (converted). On the technique in general: In ATP-based viability assays light output follows the ATP content of the culture.

The mark [4] stands for this setting: SW48 cell viability, 120 hours incubation, Table 2.
Where [5] appears, read: measured potency from Example B, as repeated in Table 3.

Molecules are shown by their SMILES. Counter-ions that a name gives are not always drawn.

T1 sequence (Q14191 whole entry): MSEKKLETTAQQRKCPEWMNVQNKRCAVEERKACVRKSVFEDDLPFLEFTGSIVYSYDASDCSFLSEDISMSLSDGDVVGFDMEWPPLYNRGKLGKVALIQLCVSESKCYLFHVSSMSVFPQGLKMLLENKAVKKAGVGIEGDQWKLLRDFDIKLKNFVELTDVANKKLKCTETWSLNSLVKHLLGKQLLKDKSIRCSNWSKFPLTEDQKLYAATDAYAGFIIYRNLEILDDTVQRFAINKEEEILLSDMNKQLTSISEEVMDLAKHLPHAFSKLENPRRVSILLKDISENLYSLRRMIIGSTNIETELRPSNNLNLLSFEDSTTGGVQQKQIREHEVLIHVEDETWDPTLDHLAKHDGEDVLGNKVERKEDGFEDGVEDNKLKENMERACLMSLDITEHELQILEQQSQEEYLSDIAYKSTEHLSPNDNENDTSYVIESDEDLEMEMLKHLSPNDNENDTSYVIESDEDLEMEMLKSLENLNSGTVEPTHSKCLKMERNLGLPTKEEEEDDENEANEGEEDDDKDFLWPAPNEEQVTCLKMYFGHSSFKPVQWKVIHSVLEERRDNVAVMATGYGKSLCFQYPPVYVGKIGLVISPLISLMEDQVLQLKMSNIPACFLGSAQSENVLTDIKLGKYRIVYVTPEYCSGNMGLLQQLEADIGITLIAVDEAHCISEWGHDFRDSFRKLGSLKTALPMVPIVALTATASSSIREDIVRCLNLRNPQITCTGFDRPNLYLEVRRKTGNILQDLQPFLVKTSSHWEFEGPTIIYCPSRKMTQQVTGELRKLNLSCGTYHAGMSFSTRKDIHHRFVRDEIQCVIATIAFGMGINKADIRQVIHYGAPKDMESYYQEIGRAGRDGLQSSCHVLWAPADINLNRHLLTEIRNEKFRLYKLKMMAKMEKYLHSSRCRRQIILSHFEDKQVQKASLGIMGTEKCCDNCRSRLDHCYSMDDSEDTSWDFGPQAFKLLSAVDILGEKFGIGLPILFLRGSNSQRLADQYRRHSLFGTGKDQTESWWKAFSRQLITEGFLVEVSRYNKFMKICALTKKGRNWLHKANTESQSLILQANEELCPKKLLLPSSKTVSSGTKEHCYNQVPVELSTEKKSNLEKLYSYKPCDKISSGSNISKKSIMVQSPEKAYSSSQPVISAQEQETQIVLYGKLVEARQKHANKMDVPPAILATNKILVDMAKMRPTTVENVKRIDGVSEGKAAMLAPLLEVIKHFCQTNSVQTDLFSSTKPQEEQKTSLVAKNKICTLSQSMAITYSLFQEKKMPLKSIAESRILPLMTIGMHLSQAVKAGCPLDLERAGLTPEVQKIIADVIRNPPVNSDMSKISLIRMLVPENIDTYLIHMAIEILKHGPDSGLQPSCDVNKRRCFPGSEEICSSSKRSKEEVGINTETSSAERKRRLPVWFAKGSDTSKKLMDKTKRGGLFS

Consider `Cc1nc2cc(S(=O)(=O)N(C)c3ccc([C@H]4CCC[C@@H](C(=O)Nc5ccc(C(F)(F)F)cc5F)[C@@H]4C(=O)O)cc3)cc(C3CCCN(C)C3)c2n1C` (relative stereo) [Example 270, (1R,2R,6S)-2-((2-fluoro-4-(trifluoromethyl)phenyl)carbamoyl)-6-(4-((N,1,2-trimethyl-7-((S*)-1-methylpiperidin-3-yl)-1H-benzo[d]imidazole)-5-sulfonamido)phenyl)cyclohexane-1-carboxylic acid], for which the “4 hr UNW pIC50” value in series [1] was 9.0. In addition, the “Free Drug SW48 pCC50” value in series [2] was 7.18. The “SW48 pCC50” value in series [3] (setting [4]) and in series [3] (setting [5]) was 6.5 in each case.
As for `Cc1nc2cc(S(=O)(=O)N(C)c3ccc([C@H]4C[C@@H]5OCC[C@@H]5[C@@H](C(=O)Nc5ccc(C(F)(F)F)cc5F)[C@@H]4C(=O)O)cc3)ccc2n1C` (single isomer, unassigned) [Example 158], the IC50 in series [1] was 31.6 nM. For the same compound, the “Free Drug SW48 pCC50” value in series [2] is recorded as 6.03. Besides, the “SW48 pCC50” value in series [3] (setting [4]) and in series [3] (setting [5]) was 5.4 in each case.
Take `Cc1nc2cc(S(=O)(=O)N(C)c3ccc([C@H]4C[C@@H](N5CCOCC5)C[C@@H](C(=O)Nc5ccc(C(F)(F)F)cc5F)[C@@H]4C(=O)O)cc3)ccc2n1C` (single isomer, unassigned) [Example 340]: the IC50 in series [1] is 7.94 nM. Moreover, in series [2], the “Free Drug SW48 pCC50” value was 5.99. Also, the “SW48 pCC50” value in series [3] (setting [4]) and in series [3] (setting [5]) was 5.1 each time.
For the compound `Cc1nc2cc(S(=O)(=O)N(C)c3ccc([C@H]4C[C@@H](N5CCC[C@@H](F)C5)C[C@@H](C(=O)Nc5ccc(C(F)(F)F)cc5F)[C@@H]4C(=O)O)cc3)ccc2n1C` (single isomer, unassigned) [Example 347, rel-(1R*,2R*,4S*,6S*)-2-((2-fluoro-4-(trifluoromethyl)phenyl)carbamoyl)-4-((R)-3-fluoropiperidin-1-yl)-6-(4-((N,1,2-trimethyl-1H-benzo[d]imidazole)-5-sulfonamido)phenyl)cyclohexane-1-carboxylic acid], the IC50 in series [1] was 10 nM. Moreover, the “Free Drug SW48 pCC50” value in series [2] is given as 6.17. In addition, the “SW48 pCC50” value in series [3] (setting [4]) and in series [3] (setting [5]) was 5.2 in each case.
For `Cc1nc2cc(S(=O)(=O)N(C)c3ccc([C@H]4C[C@@H](N5CCC[C@@H](F)C5)C[C@@H](C(=O)Nc5ccc(C(F)(F)F)cc5F)[C@@H]4C(=O)O)cc3)ccc2n1C` (single isomer, unassigned) [Example 376, rel-(1R*,2R*,4R*,6S*)-2-((2-fluoro-4-(trifluoromethyl)phenyl)carbamoyl)-4-((R)-3-fluoropiperidin-1-yl)-6-(4-((N,1,2-trimethyl-1H-benzo[d]imidazole)-5-sulfonamido)phenyl)cyclohexane-1-carboxylic acid], the IC50 in series [1] was 2.51 nM. Also, the “Free Drug SW48 pCC50” value in series [2] is given as 7.70. The “SW48 pCC50” value in series [3] (setting [4]) and in series [3] (setting [5]) was 7.1 in each case.
Take `Cc1nc2cc(S(=O)(=O)N(C)c3ccc([C@@H]4C[C@@H]5COC[C@@H]5[C@@H](C(=O)Nc5ccc(C(F)(F)F)cc5F)[C@@H]4C(=O)O)cc3)ccc2n1C` (single isomer, unassigned) [Example 390]: the IC50 in series [1] is 6.31 nM. In addition, in series [2], the “Free Drug SW48 pCC50” value is 6.49. The “SW48 pCC50” value in series [3] (setting [4]) and in series [3] (setting [5]) was 5.7 in each case.
For the compound `Cc1nc2cc(S(=O)(=O)N(C)c3ccc([C@H]4C[C@@H](O[C@H]5CCOC5)C[C@@H](C(=O)Nc5ccc(C(F)(F)F)cc5F)[C@@H]4C(=O)O)cc3)ccc2n1C` (stereo in doubt) [Example 324, (1R*,2R*,4R*,6S*)-2-((2-fluoro-4-(trifluoromethyl)phenyl)carbamoyl)-4-(((S)-tetrahydrofuran-3-yl)oxy)-6-(4-((N,1,2-trimethyl-1H-benzo[d]imidazole)-5-sulfonamido)phenyl)cyclohexane-1-carboxylic acid], in series [1], the “4 hr UNW pIC50” value stood at 7.2. For the same compound, the “Free Drug SW48 pCC50” value in series [2] was 5.60. The “SW48 pCC50” value in series [3] (setting [4]) and in series [3] (setting [5]) was 5.1 throughout.
Consider `CN(c1ccc([C@H]2CCC[C@@H](C(=O)Nc3ccc(C(F)(F)F)cc3F)[C@@H]2C(=O)O)cc1)S(=O)(=O)c1ccc(-c2ccn(C)n2)cc1` [Example 99, (1R,2R,6S)-2-((2-fluoro-4-(trifluoromethyl)phenyl)carbamoyl)-6-(4-((N-methyl-4-(1-methyl-1H-pyrazol-3-yl)phenyl)sulfonamido)phenyl)cyclohexane-1-carboxylic acid], for which the “4 hr UNW pIC50” value in series [1] was found to be 8.6. In series [2], the “Free Drug SW48 pCC50” value is on record as 7.77. The “SW48 pCC50” value in series [3] (setting [4]) and in series [3] (setting [5]) was 6.1 each time.
`Cc1nc2cc(S(=O)(=O)N(C)c3ccc([C@H]4CCC[C@@H](C(=O)N[C@H]5CC[C@H](C6CCC6)CC5)[C@@H]4C(=O)O)cc3)ccc2n1C` [Example 188, (1R,2R,6S)-2-(((1r,4R)-4-cyclobutylcyclohexyl)carbamoyl)-6-(4-((N,1,2-trimethyl-1H-benzo[d]imidazole)-5-sulfonamido)phenyl)cyclohexane-1-carboxylic acid]: the IC50 in series [1] was 2.51 nM. Also, in series [3] (Table 2), the CC50 was 2510 nM.
On the same counts, the results for `CCC[C@H]1CC[C@H](NC(=O)[C@@H]2CCC[C@H](c3ccc(N(C)S(=O)(=O)c4ccc5c(c4)nc(C)n5C)cc3)[C@H]2C(=O)O)CC1` [Example 190, (1R,2R,6S)-2-(((1s,4R)-4-propylcyclohexyl)carbamoyl)-6-(4-((N,1,2-trimethyl-1H-benzo[d]imidazole)-5-sulfonamido)phenyl)cyclohexane-1-carboxylic acid] are 1.58 nM and 3980 nM.
On the same counts, the results for `Cc1nc2cc(S(=O)(=O)N(C)c3ccc([C@H]4CCC[C@@H](CO[C@H]5CC[C@H](C(F)(F)F)CC5)[C@@H]4C(=O)O)cc3)ccc2n1C` [Example 215, (1R,2R,6S)-2-((((1r,4R)-4-(trifluoromethyl)cyclohexyl)oxy)methyl)-6-(4-((N,1,2-trimethyl-1H-benzo[d]imidazole)-5-sulfonamido)phenyl)cyclohexane-1-carboxylic acid] are 79.4 nM and 20000 nM.
With `Cc1nc2cc(S(=O)(=O)N(C)c3ccc([C@H]4CCC[C@@H](COc5ccc(C(F)(F)F)cc5)[C@@H]4C(=O)O)cc3)ccc2n1CCN` [Example 216, (1R,2S,6R)-2-(4-((1-(2-aminoethyl)-N,2-dimethyl-1H-benzo[d]imidazole)-5-sulfonamido)phenyl)-6-((4-(trifluoromethyl)phenoxy)methyl)cyclohexane-1-carboxylic acid, 0.41 formic acid salt], the IC50 in series [1] is 5.01 nM. The CC50 in series [3] (Table 2) is 12600 nM.
For `CCN(c1ccc([C@H]2CCC[C@@H](C(=O)Nc3ccc(C(F)(F)F)cc3F)[C@@H]2C(=O)O)cc1)S(=O)(=O)c1ccc2c(c1)nc(C)n2C` [Example 233], in that order: 12.6 nM and 5010 nM.
On to `Cc1nc2cc(S(=O)(=O)N(c3ccc([C@H]4CCC[C@@H](C(=O)Nc5ccc(C(F)(F)F)cc5F)[C@@H]4C(=O)O)cc3)C3CC3)ccc2n1C` [Example 238, (1R,2S,6R)-2-(4-((N-cyclopropyl-1,2-dimethyl-1H-benzo[d]imidazole)-5-sulfonamido)phenyl)-6-((2-fluoro-4-(trifluoromethyl)phenyl)carbamoyl)cyclohexane-1-carboxylic acid], for which the IC50 in series [1] was 3.98 nM. Also, the CC50 in series [3] (Table 2) was 2000 nM.
On the same counts, the results for `CN(c1ccc([C@H]2CCC[C@@H](C(=O)Nc3ccc(C(F)(F)F)cc3F)[C@@H]2C(=O)O)cc1)S(=O)(=O)c1ccc(O)c(C=O)c1` [Example 248] are 3.16 nM and 3980 nM.
For `CN(c1ccc([C@H]2CCC[C@@H](C(=O)Nc3ccc(C(F)(F)F)cc3F)[C@@H]2C(=O)O)cc1)S(=O)(=O)c1ccc2c(c1)CNCC2` [Example 260, (1R,2R,6S)-2-((2-fluoro-4-(trifluoromethyl)phenyl)carbamoyl)-6-(4-((N-methyl-1,2,3,4-tetrahydroisoquinoline)-7-sulfonamido)phenyl)cyclohexane-1-carboxylic acid hydrochloride], in that order: 2 nM and 1580 nM.
For `CN(c1ccc([C@H]2CCC[C@@H](C(=O)Nc3ccc(C(F)(F)F)cc3F)[C@@H]2C(=O)O)cc1)S(=O)(=O)c1ccc(Br)c(O)c1` [Example 274, (1R,2S,6R)-2-(4-((4-bromo-3-hydroxy-N-methylphenyl)sulfonamido)phenyl)-6-((2-fluoro-4-(trifluoromethyl)phenyl)carbamoyl)cyclohexane-1-carboxylic acid], in that order: 15.8 nM and 15800 nM.
